Here are results for 4 compounds from patent US4725592A, “1-Acyloxyalkyl esters of cephalosporin” (Takeda Chemical Industries, Ltd., priority 1983, dated 1988).

Each structure is given as a SMILES string. Where two headings read alike, the source gives them in different places.

On the set-up of series [1]: species or system mice. The following applies: mouse, in vivo; for Bioavailability / Plasma level of non-ester (Compound [II]) 2 hr / AUC: 120 min; for Plasma level of non-ester (Compound [II]) 0.25 hr / Plasma level of non-ester (Compound [II]) 0.5 hr / Plasma level of non-ester (Compound [II]) 1.0 hr / Plasma level of non-ester (Compound [II]) 2 hr / AUC: po, 100 mg/kg; for Plasma level of non-ester (Compound [II]) 0.25 hr: 15 min; for Plasma level of non-ester (Compound [II]) 0.5 hr: 30 min; for Plasma level of non-ester (Compound [II]) 1.0 hr: 60 min. The method, then: The compounds of Examples (compound Nos. 1 and 2) and, as a control compound, the pivaloyloxymethyl ester of compound [II] (hereinafter referred to briefly as compound A) are administered orally to mice, each compound to one animal, in the dose of 100 mg/kg in terms of the non-ester, i.e. compound [II]. […] As a control, compound [II] is subcutaneously administered to a mouse and the AUC value is calculated as above.

In series [2] the test system is Staphylococcus aureus. The following applies: Antimicrobial Agent and Chemotherapy 14, 557-568 (1978); cited from earlier work.
Series [3] concerns Escherichia coli. The following applies: Antimicrobial Agent and Chemotherapy 14, 557-568 (1978); cited from earlier work.
Series [4] relates to Klebsiella pneumoniae. The following applies: Antimicrobial Agent and Chemotherapy 14, 557-568 (1978); cited from earlier work.
The subject of series [5] is Proteus vulgaris. The conditions noted are these: Antimicrobial Agent and Chemotherapy 14, 557-568 (1978); cited from earlier work.
In series [6] the test system is Proteus mirabilis. The conditions noted are these: Antimicrobial Agent and Chemotherapy 14, 557-568 (1978); cited from earlier work.
For series [7], the system named is Proteus morganii. The conditions noted are these: Antimicrobial Agent and Chemotherapy 14, 557-568 (1978); cited from earlier work.

What is called AUC is the area under the concentration-time curve, a measure of exposure.

With `CN(C)CCn1nnnc1SCC1=C(C(=O)OCOC(=O)C(C)(C)C)N2C(=O)[C@@H](NC(=O)Cc3csc(N)n3)[C@H]2SC1` [A, pivaloyloxymethyl ester of compound [II]], in series [1], the Bioavailability turned out to be 41.8%, the “Plasma level of non-ester (Compound [II]) 0.25 hr” value was determined as 21000 ng/mL, the “Plasma level of non-ester (Compound [II]) 0.5 hr” value was found to be 16200 ng/mL and the “Plasma level of non-ester (Compound [II]) 1.0 hr” value came to 6100 ng/mL. The “Plasma level of non-ester (Compound [II]) 2 hr” value in series [1] worked out at 600 ng/mL.
Turning to `CC(C)CC(=O)OC(OC(=O)C1=C(CSc2nnnn2CCN(C)C)CS[C@@H]2[C@H](NC(=O)Cc3csc(N)n3)C(=O)N12)C(C)C.Cl.Cl` (stereo partly drawn) [Compound No. 1, 1-(3-Methylbutyryloxy)-2-methylpropyl 7β-[2-(2-aminothiazol-4-yl)acetamido]-3-[[[1-(2-dimethylaminoethyl)-1H-tetrazol-5-yl]thio]methyl]ceph-3-em-4-carboxylate dihydrochloride], in series [1], the Bioavailability was found to be 91.0%, the “Plasma level of non-ester (Compound [II]) 0.25 hr” value turned out to be 55400 ng/mL, the “Plasma level of non-ester (Compound [II]) 0.5 hr” value stood at 37000 ng/mL and the “Plasma level of non-ester (Compound [II]) 1.0 hr” value turned out to be 8460 ng/mL. For the same compound, in series [1], the AUC worked out at 35300 ng·h/mL and the “Plasma level of non-ester (Compound [II]) 2 hr” value is 2500 ng/mL.
On to `CCCC(OC(=O)CC(C)C)OC(=O)C1=C(CSc2nnnn2CCN(C)C)CS[C@@H]2[C@H](NC(=O)Cc3csc(N)n3)C(=O)N12.Cl.Cl` (stereo partly drawn) [Compound No. 2, 1-(3-Methylbutyryloxy)butyl 7β-[2-(2-aminothiazol-4-yl)acetamido]-3-[[[1-(2-dimethylaminoethyl) -1H-tetrazol-5-yl]thio]methyl]ceph-3-em-4-carboxylate dihydrochloride], for which, in series [1], the Bioavailability came to 81.4%, the “Plasma level of non-ester (Compound [II]) 0.25 hr” value amounted to 74300 ng/mL, the “Plasma level of non-ester (Compound [II]) 0.5 hr” value stood at 21600 ng/mL and the “Plasma level of non-ester (Compound [II]) 1.0 hr” value came out at 5360 ng/mL. In series [1], the AUC stood at 31600 ng·h/mL and the “Plasma level of non-ester (Compound [II]) 2 hr” value amounted to 1800 ng/mL.
On to `CN(C)CCn1nnnc1SCC1=C(C(=O)O)N2C(=O)[C@@H](NC(=O)Cc3csc(N)n3)[C@H]2SC1` [Compound [II], 7β-[2-(2-aminothiazol-4-yl)acetamido]-3-[[[1-(2-dimethylaminoethyl)-1H-tetrazol-5-yl]thio]methyl]ceph-3-em-4-carboxylic acid], for which, in series [1] (sc), the Bioavailability is reported as 100%. For the same compound, the antibacterial activity result in series [2], in series [3], in series [4], in series [5], in series [6] and in series [7] was “potent antibacterial activity” in each case.
